How the values were obtained:
[1] = Tolerability (survival, body weight) in Hepa1–6-bearing C57Bl/6 mice (Experiments 3 and 4); assay type: in vivo; conditions: Experiment 4 (FY26⋅Cl)
Description: (§1) Male CD1-Foxn1^nu or C57Bl/6 (B6) mice aged 5–10 weeks (Janvier, Le Genest St Isle, France) were housed in groups of three to four mice per cage in temperature-controlled (23 ± 1°C), ventilated (100 ± 10 l/min), and light-tight chronobiological animal facilities (Eurobioconcept, Bonneuil s/Marne, France). They were synchronized with an alternation of 12 h of light (L) and 12 h of darkness (D) (LD12:12), with light starting at 07:00, and had ad libitum access to food and water throughout all the experiments. In line with convention, onset of light and that of darkness are referred to as Zeitgeber time 0 (ZT0) and ZT12, respectively. After one or more weeks on this regimen and on the day prior to tumour inoculation, both flanks of each B6 mouse were shaved using clippers.
(§2) The mice, aged 8–10 weeks, were anesthetized under isoflurane and Hepa1–6-Per2-luc cells were injected subcutaneously in both postero-lateral flanks of each mouse. Mice were then inspected and weighed daily until experiment completion. Tumour sites were inspected daily until tumours became palpable and amenable to daily measurements of perpendicular diameters using callipers. Measurements were always taken at the same circadian time.
(§3) Mean daily tumour weight per mouse was calculated as the average volume of the right and left flank tumours according to (L × W^2)/2, where L is the larger and W the smaller perpendicular diameter, and 1 cm^3 corresponds to 1 g. Mice with an estimated tumour weight exceeding 10% of their body weight or those in poor general condition or loosing >15% of their starting body weight were euthanized, in compliance with our Home Office Project Licence specifications approved by the Animals in Science Committee and Animal Welfare and Ethical Review Body.
Experiment 3 aimed at assessing the efficacy and tolerability of the more soluble formulation of FY26⋅Cl in Hepa1–6-bearing C57Bl/6 mice. The mice were randomized to receive vehicle or FY26⋅Cl, at a cumulative dose of 60 mg/kg. Treated mice received ip injections of 20 mg/kg of FY26⋅Cl at ZT6 12, 14, and 17 days after tumour inoculation. Control mice received ip vehicle on the same days.
Experiment 4 aimed at confirming efficacy and optimizing timing and scheduling of the same cumulative dose of 60 mg/kg of FY26⋅Cl. Mice were randomized to receive either vehicle or FY26⋅Cl as four injections of 15 mg/kg at ZT6 or ZT18 on days 11, 14, 17, and 21.
For Experiments 1 and 2, FY26⋅PF6 was diluted in the vehicle, composed of 1% Tween 80 (Sigma-Aldrich, Gillingham, UK), 5% DMSO (Corning, New York, USA) and 94% of 0.9% saline (Prep room, Life Sciences, University of Warwick) under laminar flow. FY26⋅PF6 concentration was confirmed with ICP-MS. For Experiments 3–5, using FY26⋅Cl, a stock solution of 50 mg/ml FY26⋅Cl was prepared in 0.9% saline on the day of injection and diluted as required; the vehicle consisted of 0.9% saline.
(§4) Body weight data were expressed as % body weight measured on the first treatment day. Tumour weights for individually treated mice were expressed as % of the median control values, in order to determine % inhibition. Mean and standard error or median and interquartiles were computed for the different treatment groups and experimental conditions, i.e. drug timing and day of assessment. Groups were compared using parametric or non-parametric ANOVAs, respectively.

[2] = Body weight change after a single ip dose (Experiment 5); assay type: in vivo, C57Bl/6 mice; conditions: single ip dose 5, 10 or 20 mg/kg (FY26⋅Cl), 24 and 48 h, all mice
Description: (§5) Experiment 5 determined FY26⋅Cl uptake in mouse tumour and liver. Hepa1–6-bearing mice were randomly assigned to either treatment or control groups. They received a single ip injection of 5, 10, or 20 mg/kg of FY26⋅Cl or 0.1 M PBS (vehicle) at ZT6 (Table 1). The mice from pre-set subgroups were culled at 6, 24, or 48 h after injection. The subcutaneous tumours in both flanks, as well as liver, spleen, one kidney, an ileum, and a colon segment and brain were sampled and stored at −80°C.
as §4

[3] = system: Hepa1–6-Per2-luc hepatocarcinoma tumours; assay: Tumour volume after a single ip dose (Experiment 5); assay type: in vivo, C57Bl/6 mice; conditions: single ip dose 5, 10 or 20 mg/kg (FY26⋅Cl)
Description: as §2, §3
as §5, with “The subcutaneous tumours in both flanks, as well as liver, spleen, one kidney, an ileum, and a colon segment and brain were sampled and stored at −80°C.” left out

[4] = design: method as in PMID 20977192; conditions: 24 h incubation at 37°C, pH 7.4 ref 12; cited from earlier work
[5] = design: method as in ref 22 = [22]; 22. Abraham K. , In vitro and in vivo chronopharmacology of a new generation of an organometallic anticancer drug complex . Ph.D. thesis , University of Warwick , Coventry, UK , 2018 .; conditions: mice ref 22; cited from earlier work
[6] = Comparative maximum aqueous solubility study (ICP-OES); assay type: physicochemical; conditions: doubly deionized water, 24 h shaking, ambient 18–20°C, mean ± SD of N = 3
Description: One to five milligrams of FY26⋅PF6 or FY26⋅I, and 180 mg of FY26⋅Cl were dispensed into Falcon tubes in triplicates, then 1 ml of doubly deionized water (DDIW) was added. The Falcon tubes were placed on a Vibrax VXB basic shaker (Sigma-Aldrich, Dorset, UK) for 24 h at a speed of […] (ambient temperature 18–20°C), and were checked at intervals (further solids were added if total saturation appeared to occur). The samples were filtered through syringe filters (PTFE, 0.45 µm, 4 mm) to remove any undissolved solids. The concentrations of Os in the solutions were measured using inductively coupled plasma-optical emission spectroscopy (ICP-OES) (Agilent, Stockport, UK).
Analyses of FY26 solutions were carried out on a Perkin-Elmer (optical emission spectrometer) Optima 5300 DV instrument. All samples and standards were prepared fresh on the day in DDIW with distilled HNO3 (3.2%), thiourea (5 mM), and ascorbic acid (0.1 g/l). The osmium standard was diluted to the following concentrations for the calibration curve: 0, 25, 50, 100, 200, 400, 600, 800, and 1000 ppb. The samples were diluted by serial dilutions of typically 1 in 10 until their concentrations fitted within the calibration range and % total dissolved solids were below 0.2%. Samples were prepared in triplicates and the Os optical emissions at 228.226 and 225.585 nm were detected and integrated.

[7] = system: Hepa1–6-Per2-luc hepatocarcinoma tumours; assay: Antitumour efficacy in Hepa1–6-bearing nude mice (Experiments 1 and 2); assay type: in vivo, CD1-Foxn1^nu mice
Description: as §1
Mouse hepatocarcinoma (Hepa1–6, ATCC® CRL-1830™) was kindly provided by S. Dulong (INSERM U935, Villejuif, France), following their stable transfection with the Per2-luc [pLV7-Bsd-P(Per2)-dLuc] reporter constructs within the C5SYS ERASYSBIO+ project (FP7). Mouse Hepa1–6-Per2-luc cells were cultured in 15-cm Petri dishes until they reached 80% confluency. On the day of tumour inoculation, the cells were trypsinized and resuspended at a concentration of 10^6 cells/100 µl in PBS solution alone (Experiments 1 and 2) or with 1:1 MatriGel™ (Corning, Flintshire, UK) (Experiments 3–5) and kept on ice until injected.
as §2, §3
Experiment 1 aimed at the determination of a therapeutic dose of the less soluble FY26⋅PF6 formulation. Hepa1–6-bearing nude mice were randomly assigned to be injected intraperitoneally (ip) with vehicle (controls), or 40, 60, or 80 mg/kg/injection of FY26⋅PF6 at ZT6 (in the middle of the light span) every other day for 12 days (Table 1).
Experiment 2 aimed at assessing whether FY26⋅PF6 circadian timing would influence toxicity or efficacy in the nude mouse model. The animals were randomly assigned to receive ip vehicle or FY26⋅PF6 (50 mg/kg/injection) at ZT6 or at ZT18 (four controls and six treated mice per ZT) every other day for 11 days (six injections; cumulative dose, 300 mg/kg). […]
(§6) Body weight data were expressed as % body weight measured on the first treatment day. Tumour weights for individually treated mice were expressed as % of the median control values, in order to determine % inhibition. […]

[8] = Tolerability in Hepa1–6-bearing nude mice (Experiments 1 and 2); assay type: in vivo, CD1-Foxn1^nu mice
Description: as §1, §2, §3
Experiment 1 aimed at the determination of a therapeutic dose of the less soluble FY26⋅PF6 formulation. […]
as §6

[9] = system: A2780 cells; design: method as in PMID 26162681; conditions: previously reported ref 18; cited from earlier work
[10] = system: 809 cancer cell line screen; design: method as in PMID 26162681; conditions: on average, 809 cancer cell lines ref 18; cited from earlier work
[11] = system: A2780 ovarian cancer cells over MRC-5 fibroblasts; design: method as in PMID 26397305; conditions: applied synergistically with L-buthionine sulfoximine (L-BSO) ref 19; cited from earlier work
[12] = system: Hepa1–6 cells; design: method as in ref 21, 22 = [21]; 21. Abraham K. , Dallmann R. , Ballesta A. , Romero-Canelon I. , Sadler P. J. , Lévi F. A. , In v itro circadian synchronisation of mouse hepatocarcinoma cells with 24 h temperature cycles uncovers in || [22]; 22. Abraham K. , In vitro and in vivo chronopharmacology of a new generation of an organometallic anticancer drug complex . Ph.D. thesis , University of Warwick , Coventry, UK , 2018 .; conditions: Hepa1–6 cells synchronized with a 24-h periodic temperature cycle ref 21, 22; cited from earlier work
[13] = system: HCT-116 human colon cancer xenografts; design: method as in ref 13 = [13]; 13. Shnyder S. D. , Fu Y. , Habtemariam A. , van Rijt S. H. , Cooper P. A. , Loadman P. M. , Sadler P. J. , Anti-colorectal cancer activity of an organometallic osmium arene azopyridine complex , Med.; conditions: HCT-116 xenografts in mice ref 13; cited from earlier work
[14] = design: method as in PMID 9144445; conditions: cisplatin in BSO-treated mice ref 36; cited from earlier work

**Q.** What does the source list for CN(C)c1ccc(N=Nc2ccccn2)cc1.Cc1ccc(C(C)C)cc1.[I-].[Os+2] [FY26, [Os^II(ɳ^6-p-cym)(PhAzPy-NMe2)I]^+]?
**A.** body-weight loss according to dosing time ([1]; 15 mg/kg ip × 4, ZT18 versus ZT6): clearly worse at ZT18; survival rate ([1]; 15 mg/kg ip × 4 at ZT6): 60%; survival rate ([1]; 15 mg/kg ip × 4 at ZT18): 30%; body weight changes [2]: < 5%; changes in tumour volumes [3]: No changes; hydrolysis in aqueous solution [4]: does not readily hydrolyse; best-tolerated dosing time [5]: near the middle of the light span

**Q.** Which maximum aqueous solubility [6] does the source give for CN(C)c1ccc(N=Nc2ccccn2)cc1.Cc1ccc(C(C)C)cc1.[I-].[I-].[Os+2] [FY26⋅I] here?
**A.** 1.29 (±0.01) mM

**Q.** Which maximum aqueous solubility [6] does the source give for CN(C)c1ccc(N=Nc2ccccn2)cc1.Cc1ccc(C(C)C)cc1.F[P-](F)(F)(F)(F)F.[I-].[Os+2] [FY26⋅PF6, [Os^II(ɳ^6-p-cym)(PhAzPy-NMe2)I]PF6] here?
**A.** 0.0201 (±0.0007) mM

**Q.** What about the “tumour inhibition efficacy ranking” value ([7]; Experiment 1, 40 mg/kg/injection ip at ZT6 every other day) of the same molecule?
**A.** intermediate

**Q.** What about the “tumour inhibition efficacy ranking” value ([7]; Experiment 1, 60 mg/kg/injection ip at ZT6 every other day) of the same molecule?
**A.** least

**Q.** And the “tumour inhibition efficacy ranking” value ([7]; Experiment 1, 80 mg/kg/injection ip at ZT6 every other day)?
**A.** highest

**Q.** And the “efficacy according to dosing time” value ([7]; Experiment 2, 50 mg/kg/injection ip, ZT6 versus ZT18)?
**A.** slightly better efficacy at ZT6

**Q.** What about the tumour growth ([7]; Experiment 2, 50 mg/kg/injection ip, after the sixth dose) of the same molecule?
**A.** slowed down transiently

**Q.** What about the “toxicity of the higher dose” value ([8]; Experiment 1, 80 mg/kg/injection, all mice euthanized after up to five injections (cumulative 400 mg/kg)) of the same molecule?
**A.** clearly too toxic

**Q.** What about the “body weight loss dose–response” value ([8]; Experiment 1, 40, 60 or 80 mg/kg/injection ip at ZT6) of the same molecule?
**A.** linear dose–response relation

**Q.** What about the “body-weight loss at ZT6 as compared to ZT18” value ([8]; Experiment 2, 50 mg/kg/injection ip) of the same molecule?
**A.** less pronounced

**Q.** And the ROS induction [9]?
**A.** did induce an increase in ROS

**Q.** And the induction of apoptosis [9]?
**A.** did not induce apoptosis

**Q.** And the “activity relative to cisplatin” value [10]?
**A.** 49 times

**Q.** And the “selectivity towards A2780 over MRC-5 fibroblasts” value [11]?
**A.** up to 64 times

**Q.** What about the “variation of IC50 according to timing of in vitro drug exposure” value [12] of the same molecule?
**A.** 40%

**Q.** What about the “effect on xenograft growth” value [13] of the same molecule?
**A.** capable of delaying the growth

**Q.** Which “reduction in average survival rate” value [14] does the source give for N.N.[Cl][Pt][Cl] [cisplatin] here?
**A.** 5.7 fold
